Test results: patent US20260199305A1, “LONG-ACTING ORAL PHARMACEUTICAL COMPRISING HYPOXIA-INDUCIBLE FACTOR PROLYL HYDROLASE INHIBITOR AND USE THEREOF” (Kind Pharmaceutical, priority 2023, published 2026)

How the values were obtained:
HIF PHD-2 = biological target: T1, HIF PHD-2 (Homo sapiens, UniProt Q9GZT9); test: Inhibitory effect on HIF PHD-2 (HIF-1α peptide hydroxylation, HPLC); format: biochemical; conditions: PHD2 enzyme, 30° C., 2 hours, read-out: IC50 against HIF PHD-2
T1 construct: purchased Active Motif
T1 sequence (Q9GZT9 whole entry): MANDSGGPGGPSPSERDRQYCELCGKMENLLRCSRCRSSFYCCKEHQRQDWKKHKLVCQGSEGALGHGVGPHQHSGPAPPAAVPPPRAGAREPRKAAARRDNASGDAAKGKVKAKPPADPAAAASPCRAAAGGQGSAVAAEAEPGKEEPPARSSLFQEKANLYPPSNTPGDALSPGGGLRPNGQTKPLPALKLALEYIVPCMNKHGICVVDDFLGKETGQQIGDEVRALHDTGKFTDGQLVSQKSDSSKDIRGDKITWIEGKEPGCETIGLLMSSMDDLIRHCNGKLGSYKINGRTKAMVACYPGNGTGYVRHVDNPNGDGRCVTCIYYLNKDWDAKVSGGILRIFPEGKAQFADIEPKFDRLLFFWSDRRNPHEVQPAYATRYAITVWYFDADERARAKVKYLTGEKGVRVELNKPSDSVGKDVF
Method: Stock solutions of the following reagents were prepared: HEPES buffer (pH 7.4, 50 mM), HIF-1α peptide (sequence: DLDLEMLAPYIPMDDDFQL; Genscript) solution in DMSO/HEPES (0.5 mM; preparation method: first prepare a 20 mM solution of this peptide in DMSO, then dilute it 40-fold with the HEPES buffer), ascorbic acid solution (10 mM), FeSO4 in hydrochloric acid solution (0.1 mM FeSO4, 10 μM HCl), 2-oxoglutaric acid solution (2-OG: 1 mM), EDTA solution (pH 8.0; 0.5 M), and eight concentrations of Comp-1/DMSO solutions (concentrations: 4000 μM, 1333 μM, 444.4 μM, 148.1 μM, 49.4 μM, 16.5 μM, 5.5 μM, and 1.82 μM). The following reagents were added to nine Eppendorf tubes: 50 μL HEPES solution, 10 μL ascorbic acid solution, 10 μL FeSO4 in HCl solution, 10 μL 2-OG solution, 10 μL HIF-1α peptide solution; then 5 μL of each of the eight Comp-1/DMSO solutions and 5 μL of DMSO were added separately; finally, 5 μL of PHD2 enzyme (Active Motif; concentration: 0.2 μg/μL) was added to each tube. Each of the resulting reaction systems was incubated at 30° C. in dark for 2 hours. Finally, 10 μL of EDTA solution was added to each tube to terminate the reaction. […] The concentrations of HIF-peptide and hydroxylated peptide were quantified using a UV absorption detector to calculate their ratio. The IC50 was calculated using GraphPad Prism 6.0 software.

[1] = Elimination half-life in rats after single oral gavage; format: in vivo; conditions: SD, rat, plasma
Method: Preparation of Single-Dose Oral Formulation: 25.3800 g of meglumine (Sigma) was weighed and dissolved in 80 mL of deionized water. The resulting mixture was stirred for 35 minutes and the volume was made up to 130 mL to obtain a 1M meglumine solution. 4.31 mg, 13.54 mg, and 40.59 mg of Comp-1 were weighed separately and then added to 28.676 mL, 27 mL, and 27 mL of the 1M meglumine solution respectively. The resulting mixtures each was stirred for 31 minutes and sonicated for 5 minutes to obtain colorless transparent solutions with Comp-1 concentrations of 0.15 mg/mL, 0.5 mg/mL, and 1.5 mg/mL, respectively.
18 SD rats (half male, half female) were randomly divided into 3 groups (3 males and 3 females per group). Comp-1 was administered by oral gavage at doses of 1.5, 5.0, and 15.0 mg/kg. Blood samples were collected before administration and at 0.25, 0.5, 1, 2, 4, 6, 8, 24, 48, and 72 hours after administration. The oral vehicle was a 1 M meglumine solution in deionized water, and the administration volume was 10 mL/kg for all doses. All collected plasma samples were stored at −75±15° C. until analysis. The concentration of Comp-1 in SD rat plasma was determined using liquid chromatography-tandem mass spectrometry with Tolbutamide as an internal standard. The mass spectrometer utilized an electrospray ionization source operating in positive ion mode. The precursor-to-product ion transitions monitored were m/z 381.2→306.3 for Comp-1 and m/z 270.9->155.0 for Tolbutamide. Pharmacokinetic parameters of Comp-1 were calculated by software Phoenix™ WinNonlin version 6.1 using a non-compartmental model. Pharmacokinetic data were calculated using a linear log trapezoidal method with a weighting of 1/Y*Y. Samples with concentrations below the lower limit of quantification were not included in the calculation of pharmacokinetic parameters. Microsoft Excel 2010 was used to calculate the mean values of various parameters, with the mean determined from the pharmacokinetic parameters of each animal. The mean elimination half-lives of Comp-1 in male rats at the doses of 1.5, 5.0, and 15.0 mg/kg were: 6.72 hours, 15.0 hours, and 10.2 hours, respectively. The mean elimination half-lives of Comp-1 in female rats at the doses of 1.5, 5.0, and 15.0 mg/kg were: 12.9 hours, 5.72 hours, and 24.9 hours, respectively.

Normal Rats = test: Hemoglobin increase in normal rats, oral tiw vs qw for 4 weeks; format: in vivo, SD rats; design: Hemoglobin D0 / Hemoglobin D14: unit not given here; conditions: for Hemoglobin D0 / Hemoglobin D7 / Hemoglobin D14 / Hemoglobin D21 / Hemoglobin D28: oral; for Hemoglobin D0: day 0; for Hemoglobin D7: day 7; for Hemoglobin D14: day 14; for Hemoglobin D21: day 21; for Hemoglobin D28: day 28
Method: A total of 70 male SD rats, approximately 7 weeks old, were acclimated to the experimental environment for 10 days before the start of the experiment. Throughout the experiment, animals were housed in cages (5 rats per cage) in a conventional animal room with 24-hour continuous central air conditioning, temperature set at 24° C., and a 12-hour light/dark cycle. All rats had free access to food (dry pelleted food) and purified drinking water. The animals were randomly divided into 8 groups: the vehicle tiw group and vehicle qw group each contained 5 rats; Comp-1 3 mpk tiw, 6 mpk tiw, 10 mpk tiw, 9 mpk qw, 18 mpk qw, and 30 mpk qw, each contained 10 rats (mpk=mg/kg). The vehicle was 1 M aqueous meglumine solution. Each rat received oral gavage of the vehicle or the corresponding weight of Comp-1 vehicle solution according to its body weight and group assignment (tiw, qw) for a total of 4 weeks. Blood samples were collected from each rat on days 0, 7, 14, 21, and 28 to measure hemoglobin values (HGB, Hb). After tail snip blood collection, hemoglobin values were measured and read using a hemoglobin detector (HemoCue Hb 201+, produced by Radiometer). Quantitative data results were analyzed statistically using one-way analysis of variance (ANOVA) between groups, followed by Dunnett's multiple comparison method. Two-tailed analysis was used for statistics, and the statistical significance level was set at P<0.05.

O=C(O)CNC(=O)C1=C(O)C2(CCCC2)n2c(ccc2-c2ccccc2)C1=O [Comp-1, (6′-hydroxy-8′-oxo-3′-phenyl-8′H-spiro[cyclopentane-1,5′-indolizine]-7′-carbonyl)glycine]
IC50 (HIF PHD-2): 2360 nM
half-life ([1]; female rats, 1.5 mg/kg oral gavage): 12.9 h
half-life ([1]; female rats, 5.0 mg/kg oral gavage): 5.72 h
half-life ([1]; female rats, 15.0 mg/kg oral gavage): 24.9 h
half-life ([1]; male rats, 1.5 mg/kg oral gavage): 6.72 h
half-life ([1]; male rats, 5.0 mg/kg oral gavage): 15 h
half-life ([1]; male rats, 15.0 mg/kg oral gavage): 10.2 h
Hemoglobin D0 (Normal Rats; 3 mg/kg, tiw): 16.42 ± 0.74
Hemoglobin D7 (Normal Rats; 3 mg/kg, tiw): 18.32 ± 0.70
Hemoglobin D14 (Normal Rats; 3 mg/kg, tiw): 19.06 ± 0.81
Hemoglobin D21 (Normal Rats; 3 mg/kg, tiw): 18.09 ± 0.57
Hemoglobin D28 (Normal Rats; 3 mg/kg, tiw): 18.97 ± 0.56
Hemoglobin D0 (Normal Rats; 6 mg/kg, tiw): 17.4 ± 1.07
Hemoglobin D7 (Normal Rats; 6 mg/kg, tiw): 18.76 ± 0.76
Hemoglobin D14 (Normal Rats; 6 mg/kg, tiw): 20.15 ± 0.58
Hemoglobin D21 (Normal Rats; 6 mg/kg, tiw): 19.49 ± 0.82
Hemoglobin D28 (Normal Rats; 6 mg/kg, tiw): 21.26 ± 1.08
Hemoglobin D0 (Normal Rats; 9 mg/kg, qw): 16.96 ± 0.82
Hemoglobin D7 (Normal Rats; 9 mg/kg, qw): 17.57 ± 1.07
Hemoglobin D14 (Normal Rats; 9 mg/kg, qw): 17.77 ± 2.01
Hemoglobin D21 (Normal Rats; 9 mg/kg, qw): 17.73 ± 1.15
Hemoglobin D28 (Normal Rats; 9 mg/kg, qw): 19.09 ± 1.44
Hemoglobin D0 (Normal Rats; 10 mg/kg, tiw): 17.74 ± 1.06
Hemoglobin D7 (Normal Rats; 10 mg/kg, tiw): 19.21 ± 0.71
Hemoglobin D14 (Normal Rats; 10 mg/kg, tiw): 21.83 ± 1.18
Hemoglobin D21 (Normal Rats; 10 mg/kg, tiw): 22.12 ± 1.40
Hemoglobin D28 (Normal Rats; 10 mg/kg, tiw): 23.69 ± 1.31
Hemoglobin D0 (Normal Rats; 18 mg/kg, qw): 17.2 ± 1.00
Hemoglobin D7 (Normal Rats; 18 mg/kg, qw): 17.95 ± 0.88
Hemoglobin D14 (Normal Rats; 18 mg/kg, qw): 18.57 ± 0.76
Hemoglobin D21 (Normal Rats; 18 mg/kg, qw, in g/dL): 18.72 ± 0.92
Hemoglobin D28 (Normal Rats; 18 mg/kg, qw): 18.99 ± 1.23
Hemoglobin D0 (Normal Rats; 30 mg/kg, qw): 17.13 ± 1.17
Hemoglobin D7 (Normal Rats; 30 mg/kg, qw, in g/dL): 19.33 ± 0.56
Hemoglobin D14 (Normal Rats; 30 mg/kg, qw): 19.44 ± 1.07
Hemoglobin D21 (Normal Rats; 30 mg/kg, qw, in g/dL): 20.04 ± 0.93
Hemoglobin D28 (Normal Rats; 30 mg/kg, qw, in g/dL): 20.62 ± 0.76
hemoglobin levels compared with vehicle once weekly (qw) (Normal Rats; day 28, the three once weekly (qw) groups): statistically significantly increased
